In patent US20220186190A1, “MODELING ONCOLOGY ON DEMAND” (The Board of Trustees of the University of Illinois, priority 2019, published 2022):

What was measured:
OCM HCC cell lines = assay: MTT chemotherapeutic screening, OCM HCC cell line; format: cell-based, pig; conditions: 72 hours exposure
Experimental: (§1) Cells (1×1O^4 cells/well) were cultured in 200 ? DMEM+10% FBS overnight in 96 well plates. The following day, culture media was replaced with fresh media supplemented with one of 10 varying concentrations of each chemotherapeutic compound. Sorafenib, doxorubicin, mitomycin C, and 5-Fluorouracil (5-FU) were prepared from a stock solution in a 10-point serial dilution curve, in DMSO, and added at 1:100 to culture media (final concentration of DMSO was 1% for all conditions). As platinum complexes are inactivated by DMSO, cisplatin stock solution was 3.33 mM in water and the stock was used to prepare all dilutions. Sorafenib and mitomycin C were tested from 0.5-100 μM, doxorubicin from 0.1-20 μM, cisplatin from 1-200 μM, and 5-FU from 1-500 μM in order to assay concentrations that are relevant for clinically used dosages and that allow for calculation of the half maximal inhibitory concentration (IC50) for each compound. 96 well plates with each cell line and chemotherapeutic concentration in triplicate were prepared for time points 0, 24, 48, and 72 hours to observe a dose response overtime. For the 3-(4,5-dimethylthiazol-2-yl)-2,5-diphenyltetrazolium bromide (MTT) assay, 100 ? of fresh media was replaced at each time point, 10 ? of 5 mg/ml MTT added to each well and incubated for 4 hours at 37° C. 100 ? for an SDS/HCl solution (1 g SDS/10 ml 0.1 HCl) was then added to solubilize the resulting formazan dye and the plates incubated an additional 4 h at 37° C. Absorbance at 570 nm was read using a BioTek 800 TS Absorbance Reader (BioTek). Results are expressed in percentage, relative to the absorbance values for each cell line at time 0.
(§2) OCM and human HCC cell lines display similar sensitivities to four FDA approved cytostatic (sorafenib) and cytotoxic (doxorubicin, cisplatin, mitomycin C) chemotherapeutic agents used to treat HCC clinically, either systemically or via transarterial chemoembolization (TACE), and one shown to be ineffective (5-FU) in clinical settings.

HepG2 = assay: MTT chemotherapeutic screening, human HCC cell line HepG2; format: cell-based; conditions: 72 hours exposure
Experimental: as §1, §2

Hepal-6 = assay: MTT chemotherapeutic screening, murine HCC cell line Hepal-6; format: cell-based; conditions: for IC50: Hepal-6, MTT, 72 hours exposure
Experimental: as §1, §2

[1] = tested on: Oncopig soft tissue sarcoma tumor cells; assay: In vitro partitioning and conversion of DON prodrugs to DON in Oncopig soft tissue sarcoma tumor cells; format: in vitro ADME, pig; conditions: FIGS. 12A-12D
Source text: FIGS. 12A-12D are graphs showing in vitro partitioning and conversion of 6-diazo-5-oxo-1-norleucine (DON) prodrugs to DON in Oncopig soft tissue sarcoma tumor cells vs. plasma. […] However, when delivered as a prodrug (FIGS. 12B-12D), the level of active compound (DON, y-axis) is much higher in the cells than the cell supernatant.
(§3) OCM soft-tissue sarcoma cell lines were used to assess tumor cell specific uptake and conversion of 6-Diazo-5 -oxo-1-norleucine (DON) prodrugs. […] In addition, in vivo investigation of tumor specific uptake and temporal PK of systemically administered prodrugs in Oncopigs bearing SQ soft-tissue sarcomas validated the capability to employ the tumor-bearing OCM for chemotherapy drug pharmacologic studies (FIGS. 13A and 13B and Table 8).

[2] = In vivo PK and tumor specific uptake of systemically administered DON prodrugs in Oncopigs bearing SQ soft-tissue sarcomas; set-up: species or system pig; conditions: for AUC / Cmax: systemically administered prodrug
Source text: as §3

Structure (SMILES) | IC50 (OCM HCC cell lines; Sus scrofa) | IC50 (HepG2; Homo sapiens) | IC50 (Hepal-6; Mus musculus) | IC50 (OCM HCC cell lines) | IC50 (HepG2) | IC50 (Hepal-6) | other results
[N-]=[N+]=CC(=O)CC[C@H](N)C(=O)O [DON, 6-diazo-5-oxo-1-norleucine] | – | – | – | – | – | – | level of DON in cells vs. cell supernatant [1]: high levels are observed in the cell supernatant, with small amounts entering the cells; Tumor:Plasma AUC ratio [2]: 1.5; selective in vivo partitioning (tumor vs. plasma) ([2]; FIGS. 13A and 13B): selective in vivo partitioning of DON to tumor cells; AUC ([2]; Plasma): 2852 h*pmol/ml or g; Cmax ([2]; Plasma): 530 pmol/ml or g; AUC ([2]; Tumor): 4238 h*pmol/ml or g; Cmax ([2]; Tumor): 1019 pmol/ml or g
CO[C@@]12[C@H](COC(N)=O)C3=C(C(=O)C(C)=C(N)C3=O)N1C[C@@H]1N[C@@H]12 [Mitomycin C, mitomycin C] | – | – | – | 0.48 µM | 0.57 µM | 0.61 µM | –
N.N.[Cl][Pt][Cl] [Cisplatin, cisplatin] | – | – | – | 5.38 µM | 5.6 µM | 2.16 µM | –
CNC(=O)c1cc(Oc2ccc(NC(=O)Nc3ccc(Cl)c(C(F)(F)F)c3)cc2)ccn1 [Sorafenib] | 10.4 µM | 8.86 µM | 4.98 µM | – | – | – | –

The next lines start with results.

IC50 (OCM HCC cell lines; Sus scrofa) | IC50 (HepG2; Homo sapiens) | IC50 (Hepal-6; Mus musculus) | Structure (SMILES) | IC50 (OCM HCC cell lines) | IC50 (HepG2) | IC50 (Hepal-6) | other results
0.08 µM | 0.23 µM | 0.53 µM | COc1cccc2c1C(=O)c1c(O)c3c(c(O)c1C2=O)C[C@@](O)(C(=O)CO)C[C@@H]3O[C@H]1C[C@H](N)[C@H](O)[C@H](C)O1 [Doxorubicin, doxorubicin] | – | – | – | –
14.5 µM | 18.3 µM | 1.82 µM | O=c1[nH]cc(F)c(=O)[nH]1 [5-FU, 5-Fluorouracil] | – | – | – | higher susceptibility of murine HCC lines versus OCM and human lines (Hepal-6; Hepal-6 compared with OCM and human HCC lines): 10 fold
